Drawing on PubChem BioAssay (NCI), this text covers TGI for 16 compounds.

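Compound exposure: 48 hours, 5 concentrations, 96-well plates. TGI is the concentration that stops growth completely.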 A value given as a limit tells only on which side of the number the result lay.

Some test systems named below: TK-10 renal; HT29 colon; ACHN renal; OVCAR-3 ovarian; UACC-257 melanoma; SNB-19 CNS; A549 NSCLC; SR leukemia; SK-MEL-28 melanoma.
What all share (test): inhibition of tumour cell growth, NCI panel, 48 h

On to `COC(=O)C(C(=O)C(=O)Nc1c(Cl)cc([N+](=O)[O-])cc1Cl)c1nc2cc(C)c(C)cc2[nH]c1=O` (stereo not drawn), for which the TGI in the test with TK-10 renal, in the test on HT29 colon, with ACHN renal, in the test on OVCAR-3 ovarian, in the test with UACC-257 melanoma and in the test with SNB-19 CNS was above 100 µM each time. The compound also displayed a TGI in the test on A549 NSCLC above 100 µM.

On to `Cc1cc(=O)[nH]c(CNC(=O)c2cccc3ccccc23)n1`, for which the TGI in the test on TK-10 renal, in the test with HT29 colon, in the test on ACHN renal, with OVCAR-3 ovarian, with UACC-257 melanoma and in the test on SNB-19 CNS was above 100 µM each time. Also, the TGI in the test on SR leukemia, in the test with SK-MEL-28 melanoma and with A549 NSCLC was above 100 µM throughout.

For `CC(=O)c1cc2c3c(c1)c1cc4c(cc1c(=O)n3CC2)OCO4`, the TGI in the test on TK-10 renal, in the test on HT29 colon, in the test on ACHN renal, with OVCAR-3 ovarian, in the test on UACC-257 melanoma and in the test with SNB-19 CNS was above 100 µM throughout. In addition, the figures for the TGI in the test with SR leukemia, in the test on SK-MEL-28 melanoma and in the test on A549 NSCLC were 34.9 µM, above 100 µM and above 100 µM, respectively.

For the compound `O=S1(=O)COc2ccccc2-c2ncncc21`, the TGI in the test on TK-10 renal, in the test on HT29 colon, in the test with ACHN renal, in the test with OVCAR-3 ovarian, in the test on UACC-257 melanoma and in the test on SNB-19 CNS was above 100 µM in each case. For the same compound, the TGI in the test with SR leukemia, in the test on SK-MEL-28 melanoma and in the test with A549 NSCLC was above 100 µM each time.

For `CCOC(=O)NC(=O)c1cn(CCCCCCCCCCC(=O)N2CCN(CCn3cc(C(=O)NC(=O)OCC)c(=O)[nH]c3=O)CC2)c(=O)[nH]c1=O`, the TGI in the test on TK-10 renal, in the test with HT29 colon, in the test with ACHN renal, in the test with OVCAR-3 ovarian, in the test on UACC-257 melanoma and in the test with SNB-19 CNS was above 100 µM in each case. For the same compound, the TGI in the test with SK-MEL-28 melanoma and in the test with A549 NSCLC was above 100 µM throughout.

Regarding `CCOC(=O)/C(=C/c1cc(OC)ccc1OC)CC(=O)O`, the TGI in the test with TK-10 renal, in the test with HT29 colon, in the test on ACHN renal, in the test on OVCAR-3 ovarian, in the test on UACC-257 melanoma and with SNB-19 CNS was above 100 µM throughout. Further, the TGI in the test on SR leukemia, in the test with SK-MEL-28 melanoma and with A549 NSCLC was above 100 µM throughout.

For the compound `OCC1OC(n2ccc3cnccc32)CC1O` (stereo not drawn), the TGI in the test with TK-10 renal, in the test on HT29 colon, with ACHN renal, with OVCAR-3 ovarian, in the test on UACC-257 melanoma and with SNB-19 CNS was above 100 µM in each case. Also, the TGI in the test on SR leukemia, in the test on SK-MEL-28 melanoma and with A549 NSCLC was above 100 µM throughout.

As to `S=c1cn[nH]c2ccc(Br)cc12`, the TGI with TK-10 renal, in the test with HT29 colon, with ACHN renal, in the test on OVCAR-3 ovarian, in the test with UACC-257 melanoma and in the test on SNB-19 CNS was above 100 µM throughout. Further, the TGI in the test with SR leukemia, in the test on SK-MEL-28 melanoma and in the test on A549 NSCLC was above 100 µM each time.

As for `COc1ccc(C2Cc3cc(OC)c(OC)c(OC)c3C2=O)cc1` (stereo not drawn), the TGI in the test with TK-10 renal, with HT29 colon, in the test on ACHN renal, in the test with OVCAR-3 ovarian, in the test with UACC-257 melanoma and in the test on SNB-19 CNS was above 100 µM each time. The TGI with SK-MEL-28 melanoma and with A549 NSCLC was above 100 µM each time.

With `Cc1cc(=O)cc2sc3cc(Cl)ccc3nc1-2`, the TGI was 53.8 µM in the test on TK-10 renal; 43.3 µM with HT29 colon; 30.6 µM in the test with ACHN renal; 31.9 µM with OVCAR-3 ovarian; 69.9 µM in the test on UACC-257 melanoma; 61.9 µM with SNB-19 CNS. For the same compound, the TGI in the test with SR leukemia was 10.3 µM; in the test with SK-MEL-28 melanoma it was 69.2 µM; in the test with A549 NSCLC it was 17.8 µM.

For `CC1=C(C)C(=O)c2c(cc3c4ccccc4ccn23)C1=O`, the TGI in the test with TK-10 renal, in the test on HT29 colon, with ACHN renal, with OVCAR-3 ovarian, in the test on UACC-257 melanoma and in the test on SNB-19 CNS was above 100 µM in each case. The TGI with SK-MEL-28 melanoma and in the test with A549 NSCLC was above 100 µM throughout.

As to `C=CCOC1=C2CC[C@H](O)[C@@]2(C)CCC1=O`, the TGI with TK-10 renal, in the test on HT29 colon, in the test on ACHN renal, in the test with OVCAR-3 ovarian, in the test with UACC-257 melanoma and in the test on SNB-19 CNS was above 100 µM in each case. In addition, the TGI in the test with SR leukemia, in the test with SK-MEL-28 melanoma and in the test with A549 NSCLC was above 100 µM in each case.

With `COC1OC(COCc2ccc(Cl)cc2)C(OCc2ccc(Cl)cc2)C1O` (stereo not drawn), the TGI with TK-10 renal was 67.4 µM; in the test on HT29 colon, 33.2 µM; in the test on ACHN renal, 40.2 µM; with OVCAR-3 ovarian, 42.8 µM; with UACC-257 melanoma, 30.7 µM; in the test with SNB-19 CNS, 32.4 µM. For the same compound, the TGI with SK-MEL-28 melanoma was 31.4 µM; with A549 NSCLC it was 37.5 µM.

Consider `Nc1ccccc1S(=O)c1ccccc1` (stereo not drawn), for which the TGI with TK-10 renal is above 100 µM; with HT29 colon it was above 1 µM; in the test on ACHN renal it was above 100 µM; with OVCAR-3 ovarian, above 100 µM; with UACC-257 melanoma it was above 1 µM; in the test with SNB-19 CNS, above 100 µM. The TGI with SK-MEL-28 melanoma and in the test with A549 NSCLC was above 100 µM throughout.

For the compound `O=C(CC(=O)C(=O)CC(=O)OCc1ccccc1)OCc1ccccc1`, the TGI with TK-10 renal, with HT29 colon, with SNB-19 CNS, in the test with SR leukemia, in the test with SK-MEL-28 melanoma and in the test with A549 NSCLC was above 100 µM throughout.

As to `CC(C)CC(=O)N1CCN(C(=O)CC(C)C)c2ccccc21`, the TGI in the test with TK-10 renal, with HT29 colon, in the test on ACHN renal, in the test with OVCAR-3 ovarian, in the test on UACC-257 melanoma and in the test on SNB-19 CNS was above 100 µM each time. Moreover, the TGI with SK-MEL-28 melanoma and in the test on A549 NSCLC was above 100 µM throughout.
